Experimental data from patent publication US20220031800A1, “PEPTIDES FOR TREATING NON-EXUDATIVE MACULAR DEGENERATION AND OTHER DISORDERS OF THE EYE” (Allegro Pharmaceuticals, LLC, priority 2019, published 2022).
Square brackets hold non-standard residues; d marks the D form. Peptide text beside a SMILES is read from it. Cya = N[C@@H](CS(=O)(=O)O)C(=O)O

Columns and labels:
[1] = tested on: OIR mouse retina; test: RNA-seq gene expression in OIR mouse retina after intravitreal injection; format: in vivo; conditions: 10 μg/1 μL single intravitreal injection
From the text: Purpose: This study used RNA-seq to identify the genes regulated in the mouse retina following risuteganib intravitreal injection. Analysis of the specific genes regulated by risuteganib enables identification of biological processes and pathways modulated by the oligopeptide. […] Risuteganib causes reduced leukocyte attachment, reduced leukocyte trans-endothelial migration and reduced expression of complement 3 receptor. Methods: OIR mouse pups received 5 days of hyperoxia (75% O2) to obliterate developing retinal vessels. Following their return to room air, retinal neovascularization develops due to an imbalance in oxygen supply and demand. At the time of return to room air, both eyes of OIR pups received either vehicle injection or a single intravitreal injection of risuteganib solution at concentration of 10 μg/1 μL. A separate group of pups raised at room air served as control and received either vehicle or risuteganib solution injection consistent with the OIR mouse group. 5 days after injection, at the height of retinal neovascularization in OIR mice, all mice are sacrificed, retina tissue extracted for RNA isolation and RNA-seq. The generated reads were then aligned to the mouse reference genome/transcriptome and gene expression quantified for differential expression analysis and fold change calculation. The list of regulated genes was then submitted to identify biological processes and pathways that are regulated after risuteganib exposure compared to vehicle control in OIR mice or control mice, and in OIR retina compared to control retina that both received vehicle injections.

[2] = tested on: primary human RPE cells; test: WST-1 cell viability of primary human RPE cells exposed to hydroquinone; format: cell-based; conditions: 0.4 mM risuteganib co-treatment with HQ 125-180 uM
Experimental: Purpose: To determine if risuteganib protects against hydroquinone (HQ)-mediated cell injury, elevated ROS level and reduced mitochondrial membrane potential (Δψm) in cultured human RPE cells. Elevated ROS levels increase oxidative stress in the cells, leading to reduced cell health and cell death. Loss of ΔΨm is a marker for early cell death. Methods: Primary human RPE cells were seeded on collagen-coated 96-well plates in triplicates at 8K, 10K and […] cells/well, respectively. Cells reached 80% to 100% confluence 24 hours after plating, and confluent cells were then grown for an additional 4 or 5 days until growth was density arrested. On day 6 after plating, cells in the plate upper half were loaded with 20 μM CM-H2DCFDA (measures ROS level) and in the plate lower half with 10 μM JC-1 (measures Δψm) for 30 minutes at 37° C. […] For the ROS and Δψm assays, a fluorescence plate reader was used to quantify ROS production (490-nm excitation, 522-nm emission), and green monomer of JC-1 (490-nm excitation, 522-nm emission) and red JC-1 aggregate (535-nm excitation, 590-nm emission), respectively. […] The WST reagent was quantified with a plate reader at 440 nm and a reference wavelength at 690 nm. Data were normalized to untreated control as 100% and were expressed as the mean±SD.

[3] = tested on: study eye of subjects with intermediate non-exudative AMD; test: Humphrey visual field assessment (mean deviation, pattern standard deviation); format: in vivo, human
From the text: Twenty-five subjects were assigned to Group 1 and fifteen (15) subjects were assigned to Group 2.

[4] = tested on: study eye of subjects with intermediate non-exudative AMD; test: Microperimetry (mean retinal sensitivity, number of loci summed); format: in vivo, human
[5] = tested on: study eye of subjects with intermediate non-exudative AMD; test: as above; format: in vivo, human; remark: listed apart in the source
From the text: Table 9, below, summarizes number of loci with reduced retinal sensitivity summed across assessments using a 20-dB threshold, an 11-dB threshold, and by measuring absolute scotoma.

[6] = Week 12, Group 2 (1 mg IVT day 1 + wk 16)
[7] = Week 12, risuteganib group (1 mg IVT day 1 + wk 16)
[8] = Week 12 change, Group 2 (1 mg IVT day 1 + wk 16)
[9] = Week 12 change, risuteganib group (1 mg IVT day 1 + wk 16)
[10] = Week 32, Group 1 crossover (sham day 1, 1 mg IVT wk 16)
[11] = Week 32, Group 2 (1 mg IVT day 1 + wk 16)
[12] = Week 32, risuteganib group (1 mg IVT day 1 + wk 16)
[13] = Week 32, sham group after crossover to 1 risuteganib injection (wk 16)
[14] = Week 32 change, Group 1 crossover (sham day 1, 1 mg IVT wk 16)
[15] = Week 32 change, Group 2 (1 mg IVT day 1 + wk 16)
[16] = Week 32 change, risuteganib group (1 mg IVT day 1 + wk 16)
[17] = Week 32 change, sham group after crossover to 1 risuteganib injection (wk 16)

C[C@@H](O)[C@H](NC(=O)[C@H](CS(=O)(=O)O)NC(=O)CNC(=O)[C@H](CCCNC(=N)N)NC(=O)CN)C(=O)N1CCC[C@H]1C(=O)O [risuteganib, Glycyl-L-arginylglycyl-3-sulfo-L-alanyl-L-threonyl-L-proline] (H-GRG[Cya]TP-OH)
Number of genes regulated in the OIR retina with statistical significance ([1]; 5 days after injection, vs vehicle): around 600 genes
Expression of integrin subunits α5, α6, αM, β1, β2, and β5 ([1]; OIR retina, 5 days after injection): down regulated
Number of biological pathways down-regulated ([1]; OIR retina, 10 of them up-regulated in OIR retina): 11
Improvement of HQ-reduced cell viability [2]: 16%
Humphrey visual field pattern standard deviation, mean [3, 6]: 3.350 dB
Humphrey visual field pattern standard deviation, median [3, 6]: 1.630 dB
Humphrey visual field mean deviation, mean [3, 7]: −5.502 dB
Humphrey visual field mean deviation, median [3, 7]: −3.500 dB
Humphrey visual field pattern standard deviation change, median [3, 8]: −0.090 dB
Humphrey visual field mean deviation change, mean [3, 9]: 0.302 dB
Humphrey visual field mean deviation change, median [3, 9]: 0.100 dB
Humphrey visual field pattern standard deviation, mean [3, 10]: 2.790 dB
Humphrey visual field pattern standard deviation, median [3, 10]: 2.410 dB
Humphrey visual field pattern standard deviation, mean [3, 11]: 3.113 dB
Humphrey visual field pattern standard deviation, median [3, 11]: 2.050 dB
Humphrey visual field mean deviation, mean [3, 12]: −5.211 dB
Humphrey visual field mean deviation, median [3, 12]: −3.470 dB
Humphrey visual field mean deviation, mean [3, 13]: −4.055 dB
Humphrey visual field mean deviation, median [3, 13]: −2.260 dB
Humphrey visual field pattern standard deviation change, mean [3, 14]: 0.469 dB
Humphrey visual field pattern standard deviation change, median [3, 14]: 0.360 dB
Humphrey visual field pattern standard deviation change, mean [3, 15]: 0.115 dB
Humphrey visual field pattern standard deviation change, median [3, 15]: 0.045 dB
Humphrey visual field mean deviation change, mean [3, 16]: 0.191 dB
Humphrey visual field mean deviation change, median [3, 16]: −0.040 dB
Humphrey visual field mean deviation change, mean [3, 17]: 0.158 dB
Humphrey visual field mean deviation change, median [3, 17]: −0.070 dB
Microperimetry mean sensitivity, mean [4, 6]: 7.52 dB
Microperimetry mean sensitivity, median [4, 6]: 7.50 dB
Microperimetry number of loci summed (reduced sensitivity), mean [4, 6]: 84.9
Microperimetry number of loci summed (reduced sensitivity), median [4, 6]: 86.5
Microperimetry mean sensitivity change, median [4, 8]: −1.50 dB
Microperimetry mean sensitivity, mean [4, 10]: 11.44 dB
Microperimetry mean sensitivity, median [4, 10]: 13.70 dB
Microperimetry number of loci summed (reduced sensitivity), mean [4, 10]: 67.6
Microperimetry number of loci summed (reduced sensitivity), median [4, 10]: 60.0
Microperimetry mean sensitivity, mean [4, 11]: 8.25 dB
Microperimetry mean sensitivity, median [4, 11]: 8.50 dB
Microperimetry number of loci summed (reduced sensitivity), median [4, 11]: 79.5
Microperimetry mean sensitivity change, median [4, 14]: −0.20 dB
Microperimetry number of loci summed change, mean [4, 14]: 7.9
Microperimetry mean sensitivity change, median [4, 15]: −0.40 dB
Microperimetry number of loci summed change, mean [4, 15]: 1.0
Increase (improvement) in mean retinal sensitivity ([4]; risuteganib responders at Week 32 (FIG. 5)): 2.2 dB
Microperimetry number of loci summed change, median [5, 8]: 4.0
Microperimetry number of loci summed change, mean ([5]; Week 12 change, Group 2 (1 mg IVT day 1 + wk 16), increase = worsening): 6.1
Microperimetry number of loci summed (reduced sensitivity), mean [5, 11]: 80.7
Microperimetry number of loci summed change, median [5, 14]: −1.0
Microperimetry number of loci summed change, median [5, 15]: −3.0
Decrease (improvement) in number of summed loci with reduced retinal sensitivity ([5]; risuteganib responders at Week 32 (FIG. 7)): 17.75
